Values of other authors as cited in patent US7550155B2, “Aqueous pharmaceutical compositions of 2,6-diisopropylphenol (propofol) and their uses” (Transform Pharmaceuticals Inc., priority 2002, dated 2009).

Details: 10% aqueous solution of P188

CC(C)c1cccc(C(C)C)c1O [propofol, 2,6-diisopropylphenol]
Propofol held in aqueous P188 solution: 0.8%
